Among the data in patent US9505728B2, “Triazolone compounds and uses thereof” (INCEPTION 2, INC., priority 2012, dated 2016) are IC50 values, retold here.

The experiment concerns the target T1, Human PPARα (Homo sapiens, UniProt Q07869).
T1 construct: host or cells: proprietary non-human mammalian cells
T1 sequence (Q07869 1-468): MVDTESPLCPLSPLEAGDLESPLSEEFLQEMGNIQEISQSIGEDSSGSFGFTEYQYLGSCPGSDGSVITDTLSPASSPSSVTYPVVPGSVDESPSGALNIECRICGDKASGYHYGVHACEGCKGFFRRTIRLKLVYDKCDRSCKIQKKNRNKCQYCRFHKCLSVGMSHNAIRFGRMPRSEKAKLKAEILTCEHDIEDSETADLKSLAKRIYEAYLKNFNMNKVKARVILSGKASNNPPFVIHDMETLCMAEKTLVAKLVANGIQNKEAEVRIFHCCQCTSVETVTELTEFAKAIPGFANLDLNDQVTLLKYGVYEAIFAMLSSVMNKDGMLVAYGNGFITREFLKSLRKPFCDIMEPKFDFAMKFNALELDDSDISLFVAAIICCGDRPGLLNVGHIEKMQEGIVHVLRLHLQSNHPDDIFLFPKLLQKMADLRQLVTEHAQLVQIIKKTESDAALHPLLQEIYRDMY
The experiment in a line: Human PPARα Reporter Assay (luciferase). Format: cell-based. Particulars: human PPARα reporter cells, overnight incubation, antagonism; read-out: Luciferase IC50. The method, boiled down: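 Non-human mammalian cells constitutively expressing human PPARα with a PPARα-responsive luciferase reporter were dosed with compounds right after plating. After overnight incubation, media removed and detection reagent added; luminescence taken as proportional to PPARα activation, agonist or antagonist mode.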
In general terms: Reporter assays use an easily measured gene product as a stand-in for the process of interest.
Broadly, the IC50 is the concentration needed to halve the response being measured. As to `CCn1c(CCCc2ccc(-c3ccc(C(F)(F)F)c(NS(=O)(=O)c4ccccc4)n3)cc2)nn(Cc2ccc(C(C)(C)C)cc2)c1=O` [Example 164, 1-{[4-(tert-Butyl)phenyl]methyl}-4-ethyl-3-[3-(4-{6-[(phenylsulfonyl)amino]-5-(trifluoromethyl)(2-pyridyl)}phenyl)propyl]-1,2,4-triazolin-5-one], the IC50 came out at 20 nM.
With `CCn1c(CCCc2ccc(-c3cccc(NS(=O)(=O)c4ccc(C)cc4)c3)cc2)nn(Cc2ccc(C(C)(C)C)cc2)c1=O` [Example 7, N-(4′-(3-(1-(4-(tert-Butyl)benzyl)-4-ethyl-5-oxo-4,5-dihydro-1H-1,2,4-triazol-3-yl)propyl)-[1,1′-biphenyl]-3-yl)-4-methylbenzenesulfonamide] the figure was 471 nM.
With `CCn1c(CCCc2ccc(-c3ccc(OC)c(NS(=O)(=O)c4ccccc4)n3)cc2)nn(Cc2ccc(C(C)(C)C)cc2)c1=O` [Example 59, 1-{[4-(tert-Butyl)phenyl]methyl}-4-ethyl-3-[3-(4-{5-methoxy-6-[(phenylsulfonyl)amino](2-pyridyl)}phenyl)propyl]-1,2,4-triazolin-5-one], the IC50 is 3 nM.
The same measure for `CCn1c(CCCc2ccc(-c3ccc(OC(F)(F)F)c(CC(=O)O)c3)cc2)nn(Cc2ccc(C(C)(C)C)cc2)c1=O` [Example 130, 2-(4′-(3-(1-(4-(tert-Butyl)benzyl)-4-ethyl-5-oxo-4,5-dihydro-1H-1,2,4-triazol-3-yl)propyl)-4-(trifluoromethoxy)-[1,1′-biphenyl]-3-yl)acetic acid]: 11 nM; for `CCn1c(CCCc2ccc(-c3ccc(C4(F)COC4)cc3)cc2)nn(Cc2ccc(C(C)(C)C)cc2)c1=O` [Example 143, 1-(4-(tert-Butyl)benzyl)-4-ethyl-3-(3-(4%(3-fluorooxetan-3-yl)-[1,1′-biphenyl]-4-yl)propyl)-1H-1,2,4-triazol-5(4H)-one]: 101 nM; for `C=CCn1c(CCCc2ccc(-c3ccc(OC)c(CC(=O)O)c3)cc2)nn(Cc2ccc(C(C)(C)C)cc2)c1=O` [Example 76, 2-(4′-(3-(4-Allyl-1-(4-(tert-butyl)benzyl)-5-oxo-4,5-dihydro-1H-1,2,4-triazol-3-yl)propyl)-4-methoxy-[1,1′-biphenyl]-3-yl)acetic acid]: 261 nM.
With `CCn1c(CCC(F)(F)c2ccc(-c3ccc(C4(F)COC4)cn3)cc2)nn(Cc2ccc(C(C)(C)C)cc2)c1=O` [Example 195, 1-(4-(tert-Butyl)benzyl)-3-(3,3-difluoro-3-(4-(5-(3-fluorooxetan-3-yl)pyridine-2-yl)phenyl)propyl)-4-ethyl-1H-1,2,4-triazol-5(4H)-one] the figure was 49 nM; with `CCn1c(CCCc2ccc(-c3ccc(SC)c(CC(=O)O)c3)cc2)nn(Cc2ccc(C(C)(C)C)cc2)c1=O` [Example 64, 2-(5-{4-[3-(1-{[4-(tert-Butyl)phenyl]methyl}-4-ethyl-5-oxo(1,2,4-triazolin-3-yl))propyl]phenyl}-2-methylthiophenyl)acetic acid], 38 nM; with `CCn1c(CC2CC2c2ccc(-c3cccc(CC(=O)O)c3)cc2)nn(Cc2ccc(C(C)(C)C)cc2)c1=O` (stereo not drawn) [Example 30, 2-(4′-(2-((1-(4-(tert-butyl)benzyl)-4-ethyl-5-oxo-4,5-dihydro-1H-1,2,4-triazol-3-yl)methyl)cyclopropyl)-[1,1′-biphenyl]-3-yl)acetic acid], 1280 nM.
With `CCn1c(CCCc2ccc(-c3cccc(NS(=O)(=O)C4CC4)n3)cc2)nn(Cc2ccc(C(C)(C)C)cc2)c1=O` [Example 42, 1-{[4-(tert-Butyl)phenyl]methyl}-3-[3-(4-{6-[(cyclopropylsulfonyl)amino](2-pyridyl)}phenyl)propyl]-4-ethyl-1,2,4-triazolin-5-one] the figure was 488 nM.
As for `CCCn1c(CCCc2ccc(-c3ccc(OC)c(CC(=O)O)c3)cc2)nn(Cc2ccc(C(C)(C)C)cc2)c1=O` [Example 80, 2-(4′-(3-(1-(4-(tert-Butyl)benzyl)-5-oxo-4-propyl-4,5-dihydro-1H-1,2,4-triazol-3-yl)propyl)-4-methoxy-[1,1′-biphenyl]-3-yl)acetic acid], the half-maximal inhibitory concentration (IC50) worked out at 22 nM.
With `CCn1c(CCCc2ccc(-c3ccc(OC)c(NS(=O)(=O)c4ccc(C(F)(F)F)cc4)n3)cc2)nn(Cc2ccc(C(C)(C)C)cc2)c1=O` [Example 88, 1-{[4-(tert-Butyl)phenyl]methyl}-4-ethyl-3-(3-{4-[5-methoxy-6-({[4-(trifluoromethyl)phenyl]sulfonyl}amino)(2-pyridyl)]phenyl}propyl)-1,2,4-triazolin-5-one] the figure was 24 nM.
`CCCn1c(CCCc2ccc(-c3ccc(OCC)c(CC(=O)O)c3)cc2)nn(Cc2ccc(C(C)(C)C)cc2)c1=O` [Example 68, 2-(4′-(3-(1-(4-(tert-Butyl)benzyl)-5-oxo-4-propyl-4,5-dihydro-1H-1,2,4-triazol-3-yl)propyl)-4-ethoxy-[1,1′-biphenyl]-3-yl)acetic acid]: the concentration for half-maximal inhibition (IC50) was found to be 32 nM.
On to `CCC(=O)NS(=O)(=O)Cc1cccc(-c2ccc(CCCc3nn(Cc4ccc(C(C)(C)C)cc4)c(=O)n3CC)cc2)c1` [Example 116, N-(((4′-(3-(1-(4-(tert-Butyl)benzyl)-4-ethyl-5-oxo-4,5-dihydro-1H-1,2,4-triazol-3-yl)propyl)-[1,1′-biphenyl]-3-yl)methyl)sulfonyl)propionamide], for which the half-maximal inhibitory concentration (IC50) is 987 nM.
The same measure for `CCn1c(CCCc2ccc(-c3ccc(C(=O)C(=O)NC4CC4)cc3)cc2)nn(Cc2ccc(C(C)(C)C)cc2)c1=O` [Example 52, 2-(4′-(3-(1-(4-(tert-Butyl)benzyl)-4-ethyl-5-oxo-4,5-dihydro-1H-1,2,4-triazol-3-yl)propyl)-[1,1′-biphenyl]-4-yl)-N-cyclopropyl-2-oxoacetamide]: 440 nM; for `CCn1c(CCCc2ccc(-c3cncc(NS(=O)(=O)c4ccccc4)n3)cc2)nn(Cc2ccc(C(C)(C)C)cc2)c1=O` [Example 129, N-(6-(4-(3-(1-(4-(tert-Butyl)benzyl)-4-ethyl-5-oxo-4,5-dihydro-1H-1,2,4-triazol-3-yl)propyl)phenyl)pyrazin-2-yl)benzenesulfonamide]: 36 nM; for `CCn1c(CCCc2ccc(-c3cccc(CC(=O)NS(=O)(=O)c4ccccc4)c3)cc2)nn(Cc2ccc(C(C)(C)C)cc2)c1=O` [Example 8, 2-(4′-(3-(1-(4-(tert-Butyl)benzyl)-4-ethyl-5-oxo-4,5-dihydro-1H-1,2,4-triazol-3-yl)propyl)-[1,1′-biphenyl]-3-yl)-N-(phenylsulfonyl) acetamide]: 304 nM.
The same measure for `CCOc1ccc(-c2ccc(CCCc3nn(Cc4ccc(C(C)(C)C)cc4)c(=O)n3CC)cc2)cc1C1(C#N)CC1` [Example 120, 1-(4′-(3-(1-(4-(tert-Butyl)benzyl)-4-ethyl-5-oxo-4,5-dihydro-1H-1,2,4-triazol-3-yl)propyl)-4-ethoxy-[1,1′-biphenyl]-3-yl)cyclopropanecarbonitrile]: 604 nM.
The same measure for `CCn1c(CCCc2ccc(-c3cccc(C(C)C(=O)O)c3)cc2)nn(Cc2ccc(C(C)(C)C)cc2)c1=O` (stereo not drawn) [Example 44, 2-(3-{4-[3-(1-{[4-(tert-Butyl)phenyl]methyl}-4-ethyl-5-oxo-1,2,4-triazolin-3-yl)propyl]phenyl}phenyl)propanoic acid]: 652 nM.
For `CCn1c(CCCc2ccc(-c3ccc(NC(=O)NS(=O)(=O)c4ccccc4)cn3)cc2)nn(Cc2ccc(C(C)(C)C)cc2)c1=O` [Example 160, N-((6-(4-(3-(1-(4-(tert-Butyl)benzyl)-4-ethyl-5-oxo-4,5-dihydro-1H-1,2,4-triazol-3-yl)propyl)phenyl)pyridin-3-yl)carbamoyl)benzenesulfonamide], the IC50 is 429 nM.
The same measure for `CCn1c(CCCc2ccc(-c3cccc(N)c3)cc2)nn(Cc2ccc(C(C)(C)C)cc2)c1=O` [Example 6, 3-(3-(3′-Amino-[1,1′-biphenyl]-4-yl)propyl)-1-(4-(tert-butyl)benzyl)-4-ethyl-1H-1,2,4-triazol-5(4H)-one]: 255 nM; for `CCn1c(CCCc2ccc(-c3ccc(OC)c([C@H](C)C(=O)O)c3)cc2)nn(Cc2ccc(C(C)(C)C)cc2)c1=O` [Example 142, (S)-2-(4′-(3-(1-(4-(tert-Butyl)benzyl)-4-ethyl-5-oxo-4,5-dihydro-1H-1,2,4-triazol-3-yl)propyl)-4-methoxy-[1,1′-biphenyl]-3-yl)propanoic acid]: 272 nM.
With `CCn1c(CCCc2ccc(-c3cccc(C(=O)NS(=O)(=O)c4ccccc4)c3)cc2)nn(Cc2ccc(C(C)(C)C)cc2)c1=O` [Example 9, 4′-(3-(1-(4-(tert-Butyl)benzyl)-4-ethyl-5-oxo-4,5-dihydro-1H-1,2,4-triazol-3-yl)propyl)-N-(phenylsulfonyl)-[1,1′-biphenyl]-3-carboxamide] the figure was 363 nM; with `CCn1c(CCCc2ccc(-c3cccc(NS(=O)(=O)c4ccc(OC)cc4)n3)cc2)nn(Cc2ccc(C(C)(C)C)cc2)c1=O` [Example 84, 1-{[4-(tert-Butyl)phenyl]methyl}-4-ethyl-3-{3-[4-(6-{[(4-methoxyphenyl)sulfonyl]amino}(2-pyridyl))phenyl]propyl}-1,2,4-triazolin-5-one], 208 nM.
